Test results as given in US20060229316A1, “Novel antiinfective compounds, process for their preparation and pharmaceutical compositions containing them” (priority 2002, published 2006).
Converted amounts (≈) assume the structure as drawn. Where two headings read alike, the source gives them in different places.

Key:
[1] = tested on: Methicillin resistant Staphylococus aureus 653SP; experiment: MIC by microbroth dilution, first column headed SA (guide: MRSA); type: cell-based, Staphylococcus aureus; conditions: for MIC: Staphylococcus aureus, read-out: MIC (μg/ml) in vitro activity in gram positive organisms, SA
Source text: (§1) The pharmaceutically acceptable compounds of the present invention are useful antibacterial agents having a good spectrum of activity in vitro and against standard Gram-positive organisms, which are used to screen for activity against pathogenic bacteria. […] The antibacterial spectrum and potency of a particular compound may be determined in a standard test system. The activity is described in terms of the minimum inhibitory concentration (MIC) determined by microbroth dilution technique as per NCCLS standards.
(§2) The minimum inhibitory concentrations (MIC's) of the compounds for the microorganisms listed in Table A were determined by preparing working solution for each compound of concentration of 128 μg/ml after dissolving it in DMSO. Two-fold serial dilution of the above solution was prepared in duplicates, using Mueller Hinton Broth, in 96 well Tissue culture plate with cover flat bottom wells to give a final volume of […] and concentration of compound ranging from 64 μg/ml-0.12 μg/ml. 30 μg/ml of Standard suspension of each organism which was prepared with turbidity equivalent to the 1:10 diluted 0.5 McFarland standard with density 10^7 CFU/ml, was added to each well to get approximately a density of 10^5 CFU/ml. These 96-well Tissue culture plate containing the test samples and positive and negative controls, were incubated at 37° C. for 16-18 hrs. The wells were visually inspected for growth and were also read at 630 nm by Automated Microplate Reader [(EL800) Trinity biotech.] and the MIC's were recorded as the lowest concentration of drug which inhibits the growth of bacteria.
(§3) The compounds of the present invention have useful activity against a variety of organisms. The in vitro activity of compounds of the present invention can be assessed by standard testing procedures such as the determination of minimum inhibitory concentration (MIC) by standard “Microdilution method” as described elsewhere in the specification. The pharmacokinetic profiling of the compounds were also done according to the protocol described in this specification. The activities of representative compounds of the present invention are given below in the following table.
MRSA: Methicillin resistant Staphylococus aureus 653SP

[2] = tested on: Enterococcus faecalis ATCC 29212; experiment: MIC by microbroth dilution, EF; type: cell-based
Source text: as §1, §2, §3
EF: Enterococcus faecalis ATCC 29212

[3] = tested on: Staphylococcus epidermidis ATCC 12228; experiment: MIC by microbroth dilution, SE; type: cell-based
Source text: as §1, §2, §3
SE: Staphylococcus epidermidis ATCC 12228

[4] = tested on: Staphylococus aureus ATCC 33591; experiment: MIC by microbroth dilution, SA; type: cell-based, Staphylococcus aureus; conditions: for MIC: Staphylococcus aureus
Source text: as §1, §2, §3
SA: Staphylococus aureus ATCC 33591

[5] = SA, Mueller Hinton Broth, 37° C., 16-18 hrs
[6] = ATCC29212, Enterococcus faecalis ATCC 29212, Mueller Hinton Broth, 37° C., 16-18 hrs, read-out: MIC (μg/ml) in vitro activity in gram positive organisms, EF
[7] = ATCC12228, Staphylococcus epidermidis ATCC 12228, Mueller Hinton Broth, 37° C., 16-18 hrs, read-out: MIC (μg/ml) in vitro activity in gram positive organisms, SE
[8] = ATCC33591, read-out: MIC (μg/ml) in vitro activity in gram positive organisms, SA
[9] = Enterococcus faecalis, ATCC29212, read-out: MIC (μg/ml) in vitro activity in gram positive organisms, EF
[10] = Staphylococcus epidermidis, ATCC12228, read-out: MIC (μg/ml) in vitro activity in gram positive organisms, SE
[11] = ATCC33591, Staphylococus aureus ATCC 33591, Mueller Hinton Broth, 37° C., 16-18 hrs, read-out: MIC (μg/ml) in vitro activity in gram positive organisms, SA
[12] = Staphylococus aureus ATCC 33591, Mueller Hinton Broth, 37° C., 16-18 hrs
[13] = Enterococcus faecalis ATCC 29212, Mueller Hinton Broth, 37° C., 16-18 hrs

| Compound | MIC [1, 5] | MIC [2, 6] | MIC [3, 7] | MIC [4, 11] | also measured |
| --- | --- | --- | --- | --- | --- |
| CC(=O)NC[C@H]1CN(c2ccc(N3CCN(C/C=C/c4ccccc4)CC3)c(F)c2)C(=O)O1 (stereo in doubt) | – | – | – | – | melting point: 134 to 136 °C |
| CC(=O)NC[C@H]1CN(c2ccc(N3CCN(C(=O)/C=C/c4cccs4)CC3)c(F)c2)C(=O)O1 [Compound 01] | 0.5 µg/mL (≈ 1.06 µM) | 1 µg/mL (≈ 2.12 µM) | 1 µg/mL (≈ 2.12 µM) | – | melting point: 223 to 225 °C |
| CC(=O)NC[C@H]1CN(c2ccc(N3CCN(C(=O)C=Cc4ccc(O)cc4)CC3)c(F)c2)C(=O)O1 [Compound 05, (S)-N-[3-(3-Fluoro-4-{4-[3-(4-hydroxyphenyl)-acryloyl]-piperazin-1-yl]-phenyl)-2-oxo-oxazolidin-5-ylmethyl]acetamide] | – | – | – | – | MIC [4, 8]: 2 µg/mL (≈ 4.14 µM); MIC [1]: 1 µg/mL (≈ 2.07 µM); MIC [2, 9]: 0.5 µg/mL (≈ 1.04 µM); MIC [3, 10]: 0.5 µg/mL (≈ 1.04 µM) |
| CC(=S)NC[C@H]1CN(c2ccc(N3CCN(C(=O)C=Cc4ccc(O)cc4)CC3)c(F)c2)C(=O)O1 [Compound 64, (S)-N-[3-(3-Fluoro-4-{4-[3-(4-hydroxyphenyl)-acryloyl]-piperazin-1-yl]-phenyl)-2-oxo-oxazolidin-5-ylmethyl]thioacetamide] | – | – | – | – | MIC [4, 8]: 0.25 µg/mL (≈ 0.501 µM); MIC [1]: 0.5 µg/mL (≈ 1 µM); MIC [2, 9]: 0.25 µg/mL (≈ 0.501 µM); MIC [3, 10]: 0.25 µg/mL (≈ 0.501 µM) |
| CC(=S)NC[C@H]1CN(c2ccc(N3CCN(C(=O)C=Cc4ccco4)CC3)c(F)c2)C(=O)O1 [Compound 66, (S)-N-[3-(3-Fluoro-4-{4-[3-(furan-2-yl)-acryloyl]-piperazin-1-yl]-phenyl)-2-oxo-oxazolidin-5-ylmethyl]thioacetamide] | 1 µg/mL (≈ 2.12 µM) | 0.5 µg/mL (≈ 1.06 µM) | 0.5 µg/mL (≈ 1.06 µM) | 0.5 µg/mL (≈ 1.06 µM) | – |
| CC(=S)NC[C@H]1CN(c2ccc(N3CCN(C(=O)C=Cc4cccs4)CC3)c(F)c2)C(=O)O1 [Compound 70, (S)-N-[3-(3-Fluoro-4-{4-[3-(thiophen-2-yl)-acryloyl]-piperazinyl]-phenyl)-2-oxo-oxazolidin-5-ylmethyl]thioacetamide] | 1 µg/mL (≈ 2.05 µM) | 0.5 µg/mL (≈ 1.02 µM) | 2 µg/mL (≈ 4.09 µM) | 0.5 µg/mL (≈ 1.02 µM) | – |
| NC(=S)NC[C@H]1CN(c2ccc(N3CCN(C(=O)/C=C/c4cccs4)CC3)c(F)c2)C(=O)O1 [Compound 123, (3/-N-[3-(3-Fluoro-4-{4-(thiophen-2-yl)-acryloyl]-piperazineyl]-phenyl)-2-oxo-oxazolidin-5-yl-methyl]thiourea] | 1 µg/mL (≈ 2.04 µM) | 0.25 µg/mL (≈ 0.511 µM) | 0.5 µg/mL (≈ 1.02 µM) | 1 µg/mL (≈ 2.04 µM) | melting point: 154 to 157 °C |
| NC(=S)NC[C@H]1CN(c2ccc(N3CCN(C(=O)C=Cc4c[nH]c5ccccc45)CC3)c(F)c2)C(=O)O1 [Compound 126, (S)-N-[3-(3-Fluoro-4-{4-[3-(1H-indol-3-yl)-acryloyl]-piperazin-1-yl]-phenyl)-2-oxo-oxazolidin-5-ylmethyl]thiourea] | 1 µg/mL (≈ 1.91 µM) | 1 µg/mL (≈ 1.91 µM) | 0.5 µg/mL (≈ 0.957 µM) | 1 µg/mL (≈ 1.91 µM) | – |
| NC(=S)NC[C@H]1CN(c2ccc(N3CCN(C(=O)C=Cc4ccco4)CC3)c(F)c2)C(=O)O1 [Compound 127, (S)-N-[3-(3-Fluoro-4-{4-[3-(furan-2-yl)-acryloyl]-piperazin-1-yl]-phenyl)-2-oxo-oxazolidin-5-ylmethyl]thiourea] | 2 µg/mL (≈ 4.22 µM) | 1 µg/mL (≈ 2.11 µM) | 0.5 µg/mL (≈ 1.06 µM) | 2 µg/mL (≈ 4.22 µM) | – |
| CC(=O)NC[C@H]1CN(c2ccc(N3CCN(C(=O)CO)CC3)c(F)c2)C(=O)O1 [Eperzolid, reference compound] | – | – | – | – | MIC (μg/ml) in vitro activity in gram positive organisms, SA [4, 12]: 4 µg/mL (≈ 10.1 µM); MIC (μg/ml) in vitro activity in gram positive organisms, SA [1, 5]: 2 µg/mL (≈ 5.07 µM); MIC (μg/ml) in vitro activity in gram positive organisms, EF [2, 13]: 2 µg/mL (≈ 5.07 µM) |
| CC(=O)NC[C@H]1CN(c2ccc(N3CCOCC3)c(F)c2)C(=O)O1 [Linezolid, reference compound] | 2 µg/mL (≈ 5.93 µM) | 4 µg/mL (≈ 11.9 µM) | 4 µg/mL (≈ 11.9 µM) | 4 µg/mL (≈ 11.9 µM) | – |
| (S)-N-[3-(3-Fluoro-4-{4-[3-(4-hydroxyphenyl)-acryloyl]-piperazin-1-yl]-phenyl)-2-oxo-oxazolidin-5-yl methyl thiourea [Compound 124] | – | – | – | – | MIC (μg/ml) in vitro activity in gram positive organisms, SA [4, 12]: 1 µg/mL; MIC (μg/ml) in vitro activity in gram positive organisms, SA [1, 5]: 1 µg/mL; MIC (μg/ml) in vitro activity in gram positive organisms, EF [2, 13]: 1 µg/mL |
| (S)-N-[3-{4-(4-(3-Benzo[1,3]-dioxol-5-yl-acryloyl)-piperazin-1-yl}-3-fluorophenyl]-2-oxo-oxazolidin-5-yl methyl thiourea [Compound 125] | – | – | – | – | MIC (μg/ml) in vitro activity in gram positive organisms, SA [4, 12]: 4 µg/mL; MIC (μg/ml) in vitro activity in gram positive organisms, SA [1, 5]: 1 µg/mL; MIC (μg/ml) in vitro activity in gram positive organisms, EF [2, 13]: 0.5 µg/mL |
